Tested on: microorganisms adhered on the surfaces of test pieces
Test: Test example I: adhesion of slime (microorganisms, as ATP) to SUS316L test pieces in flow columns
Format: cell-based
Conditions: 13 days; for Amount of microorganisms adhered: 1.7 L/min, no treatment 121
Method: A test for confirming the capabilities of a combined-chlorine slime-control agent and a stabilized-bromine slime-control agent to reduce the adhesion of slime to the energy recovery device was conducted.
Water produced by treating wastewater from Kurita Global Technology Center of Kurita Water Industries Ltd. was used as test water.
In the testing apparatus, the test water fed from a pipe 20 is split into pipes 21, 22, and 23 and passed through columns 31, 32, and 33 provided with test pieces 31a, 32a, and 33a (3 cm×5 cm test pieces made of SUS316L) fixed to the respective inner walls. FI1, FI2, and FI3 represent a flow meter. V1, V2, and V3 represent a valve.
The test water was passed into the columns 31 to 33 through the branch pipes 21 to 23 at a flow rate of 1.7 L/min for 13 days. While the test water was passed through the testing apparatus, the chemical-1 was injected into the pipe 22 such that the total chlorine concentration measured by the DPD method produced by HACH was 1.0 mg/L (Test No. 2), and the chemical-2 was injected into the pipe 23 such that the total chlorine concentration measured by the same method as in Test No. 2 was 0.8 mg/L (Test No. 3). No chemical (no treatment) was added to the pipe 21 (Test No. 1).
After the test water had been passed through the testing apparatus for 13 days, the test pieces 31a to 33a were removed, and the microorganisms adhered on the surfaces thereof were sampled. The amount of microorganisms adhered on the surface of each of the test pieces was measured with a “Lumitester C-110” produced by Kikkoman Biochemifa Company. The amount of microorganisms was measured as ATP and expressed in the unit of pg/cm^2.

| Compound | adhesion of microorganisms compared with no treatment (1.0 mg/L as total chlorine) | Amount of microorganisms adhered (Test No. 2, 1.0 mg/L as total chlorine) [ATP pg/cm^2] | adhesion of microorganisms compared with no treatment (0.8 mg/L as total chlorine) | Amount of microorganisms adhered (Test No. 3, 0.8 mg/L as total chlorine) [ATP pg/cm^2] |
| --- | --- | --- | --- | --- |
| O=S(=O)([O-])NCl.[Na+] [NHClSO3Na, sodium monochlorosulfamate] | reduced the adhesion of microorganisms | 49 |  |  |
| bromosulfamate [Chemical-2] |  |  | reduced the adhesion of microorganisms | 72 |

Reference: patent publication US10730771B2, “Method for operating reverse-osmosis membrane treatment system” (priority 2015, dated 2020)
